Test results reported in ChEMBL document CHEMBL3885861, “Open TG-GATES”.

Organism: Rattus norvegicus
Experiment: Open TG-GATES - Regimen: Daily Repeat
Type: toxicity, organism-based, Sprague-Dawley
Set-up: regimen Daily Repeat, gender Male, age 6 weeks
Conditions: in vivo, po, route gavage; for APTT / Bas / Eos / Fbg / Hb / Ht / Lym / MCH / MCHC / MCV / Mono / Neu / PT / Plat / RBC / Ret / WBC: tissue Blood; for KIDNEY_L / KIDNEY_R / KIDNEY_TOTAL: tissue Kidney; for LIVER: tissue Liver; for A/G / ALP / ALT / AST / BUN / CRE / Ca / Cl / DBIL / GLC / IP / K / LDH / Na / PL / RALB / TBIL / TC / TG / TP / gamma-GTP: tissue Plasma
[1] = 300 mg/kg, 72 h, dose level Middle, time 3 day
[2] = 300 mg/kg, […], dose level Middle, time 7 day
[3] = 300 mg/kg, […], dose level Middle, time 14 day
[4] = 300 mg/kg, […], dose level Middle, time 28 day
[5] = 1000 mg/kg, 72 h, dose level High, time 3 day
[6] = 1000 mg/kg, […], dose level High, time 7 day
[7] = 1000 mg/kg, […], dose level High, time 14 day
[8] = 1000 mg/kg, […], dose level High, time 28 day

O=C(O)c1cc(/N=N/c2ccc(S(=O)(=O)Nc3ccccn3)cc2)ccc1O [SULFASALAZINE]
TERMINAL_BW [1]: 236.9 g
APTT [1]: 18.6 s
Bas [1]: 0%
Eos [1]: 1%
Fbg [1]: 213 mg/dL
Hb [1]: 13.2 g/dL
Ht [1]: 38.4%
Lym [1]: 81.6%
MCH [1]: 21.8 pg
MCHC [1]: 34.5%
MCV [1]: 63.2 fL
Mono [1]: 2.2%
Neu [1]: 14%
PT [1]: 12.5 s
Plat [1]: 146.1 x10_4/uL
RBC [1]: 607.4 x10_4/ul
Ret [1]: 5.7%
WBC [1]: 109.3 x10_2/uL
KIDNEY_L [1]: 1 g
KIDNEY_R [1]: 1 g
KIDNEY_TOTAL [1]: 2 g
LIVER [1]: 11.1 g
A/G [1]: 1.5
ALP [1]: 1050.4 IU/L
ALT [1]: 37 IU/L
AST [1]: 69.6 IU/L
BUN [1]: 16.4 mg/dL
CRE [1]: 0.4 mg/dL
Ca [1]: 10.9 mg/dL
Cl [1]: 103.2 meq/L
DBIL [1]: 0.092 mg/dL
GLC [1]: 202.6 mg/dL
IP [1]: 6.8 mg/dL
K [1]: 3.9 meq/L
LDH [1]: 257.2 IU/L
Na [1]: 141 meq/L
PL [1]: 156.6 mg/dL
RALB [1]: 3.4 g/dL
TBIL [1]: 0.2 mg/dL
TC [1]: 81 mg/dL
TG [1]: 86.6 mg/dL
TP [1]: 5.6 g/dL
gamma-GTP [1]: 1.4 IU/L
TERMINAL_BW [2]: 264.7 g
TERMINAL_BW [3]: 309.2 g
TERMINAL_BW [4]: 365.3 g
APTT [2]: 18.5 s
Bas [2]: 0%
Eos [2]: 1%
Fbg [2]: 212.4 mg/dL
Hb [2]: 13.6 g/dL
Ht [2]: 39.4%
Lym [2]: 79.4%
MCH [2]: 21.4 pg
MCHC [2]: 34.5%
MCV [2]: 62 fL
Mono [2]: 2.6%
Neu [2]: 15.6%
PT [2]: 12.9 s
Plat [2]: 124.9 x10_4/uL
RBC [2]: 636.2 x10_4/ul
Ret [2]: 5.3%
WBC [2]: 123 x10_2/uL
APTT [3]: 18.5 s
Bas [3]: 0%
Eos [3]: 1%
Fbg [3]: 214.6 mg/dL
Hb [3]: 14.8 g/dL
Ht [3]: 41.7%
Lym [3]: 83.4%
MCH [3]: 21.2 pg
MCHC [3]: 35.4%
MCV [3]: 59.8 fL
Mono [3]: 2.6%
Neu [3]: 11.6%
PT [3]: 12.7 s
Plat [3]: 114.3 x10_4/uL
RBC [3]: 698 x10_4/ul
Ret [3]: 4.3%
WBC [3]: 109.2 x10_2/uL
APTT [4]: 18.2 s
Bas [4]: 0%
Eos [4]: 1%
Fbg [4]: 199 mg/dL
Hb [4]: 15.2 g/dL
Ht [4]: 42.2%
Lym [4]: 81.2%
MCH [4]: 20.1 pg
MCHC [4]: 35.9%
MCV [4]: 56 fL
Mono [4]: 2.4%
Neu [4]: 14.4%
PT [4]: 12.8 s
Plat [4]: 100.8 x10_4/uL
RBC [4]: 753.6 x10_4/ul
Ret [4]: 3%
WBC [4]: 88.7 x10_2/uL
KIDNEY_L [2]: 1.1 g
KIDNEY_R [2]: 1.1 g
KIDNEY_TOTAL [2]: 2.2 g
KIDNEY_L [3]: 1.2 g
KIDNEY_R [3]: 1.2 g
KIDNEY_TOTAL [3]: 2.4 g
KIDNEY_L [4]: 1.3 g
KIDNEY_R [4]: 1.3 g
KIDNEY_TOTAL [4]: 2.6 g
LIVER [2]: 11.8 g
LIVER [3]: 13 g
LIVER [4]: 13.6 g
A/G [2]: 1.7
ALP [2]: 838.8 IU/L
ALT [2]: 36.8 IU/L
AST [2]: 66.2 IU/L
BUN [2]: 15.8 mg/dL
CRE [2]: 0.4 mg/dL
Ca [2]: 10.7 mg/dL
Cl [2]: 103.6 meq/L
DBIL [2]: 0.088 mg/dL
GLC [2]: 213.8 mg/dL
IP [2]: 7 mg/dL
K [2]: 3.7 meq/L
LDH [2]: 186.6 IU/L
Na [2]: 140.8 meq/L
PL [2]: 144.4 mg/dL
RALB [2]: 3.5 g/dL
TBIL [2]: 0.1 mg/dL
TC [2]: 70.8 mg/dL
TG [2]: 83 mg/dL
TP [2]: 5.6 g/dL
gamma-GTP [2]: 1.4 IU/L
A/G [3]: 1.4
ALP [3]: 901 IU/L
ALT [3]: 37.2 IU/L
AST [3]: 64.8 IU/L
BUN [3]: 18 mg/dL
CRE [3]: 0.5 mg/dL
Ca [3]: 10.7 mg/dL
Cl [3]: 102.8 meq/L
DBIL [3]: 0.094 mg/dL
GLC [3]: 190.6 mg/dL
IP [3]: 7.1 mg/dL
K [3]: 3.6 meq/L
LDH [3]: 204.6 IU/L
Na [3]: 141 meq/L
PL [3]: 151.2 mg/dL
RALB [3]: 3.5 g/dL
TBIL [3]: 0.2 mg/dL
TC [3]: 70.4 mg/dL
TG [3]: 105.8 mg/dL
TP [3]: 6 g/dL
gamma-GTP [3]: 2 IU/L
A/G [4]: 1.5
ALP [4]: 668.8 IU/L
ALT [4]: 37.4 IU/L
AST [4]: 63.6 IU/L
BUN [4]: 18 mg/dL
CRE [4]: 0.5 mg/dL
Ca [4]: 10.3 mg/dL
Cl [4]: 103.8 meq/L
DBIL [4]: 0.082 mg/dL
GLC [4]: 214.2 mg/dL
IP [4]: 6.3 mg/dL
K [4]: 3.3 meq/L
LDH [4]: 134.4 IU/L
Na [4]: 141.8 meq/L
PL [4]: 128.6 mg/dL
RALB [4]: 3.5 g/dL
TBIL [4]: 0.1 mg/dL
TC [4]: 59.6 mg/dL
TG [4]: 92.6 mg/dL
TP [4]: 5.9 g/dL
gamma-GTP [4]: 1.2 IU/L
TERMINAL_BW [5]: 221.5 g
APTT [5]: 18 s
Bas [5]: 0%
Eos [5]: 0.8%
Fbg [5]: 215 mg/dL
Hb [5]: 14.4 g/dL
Ht [5]: 42%
Lym [5]: 87.2%
MCH [5]: 21.4 pg
MCHC [5]: 34.2%
MCV [5]: 62.4 fL
Mono [5]: 2%
Neu [5]: 8.8%
PT [5]: 13.1 s
Plat [5]: 127.1 x10_4/uL
RBC [5]: 674.2 x10_4/ul
Ret [5]: 3.4%
WBC [5]: 93.4 x10_2/uL
KIDNEY_L [5]: 1 g
KIDNEY_R [5]: 1 g
KIDNEY_TOTAL [5]: 1.9 g
LIVER [5]: 10.2 g
A/G [5]: 1.6
ALP [5]: 888.8 IU/L
ALT [5]: 49.4 IU/L
AST [5]: 77.4 IU/L
BUN [5]: 20.8 mg/dL
CRE [5]: 0.4 mg/dL
Ca [5]: 10.8 mg/dL
Cl [5]: 103.6 meq/L
DBIL [5]: 0.094 mg/dL
GLC [5]: 187.4 mg/dL
IP [5]: 6.8 mg/dL
K [5]: 3.6 meq/L
LDH [5]: 252.8 IU/L
Na [5]: 141 meq/L
PL [5]: 149.2 mg/dL
RALB [5]: 3.5 g/dL
TBIL [5]: 0.1 mg/dL
TC [5]: 78.4 mg/dL
TG [5]: 70 mg/dL
TP [5]: 5.6 g/dL
gamma-GTP [5]: 1.4 IU/L
TERMINAL_BW [6]: 246.1 g
TERMINAL_BW [7]: 276.8 g
TERMINAL_BW [8]: 334.1 g
APTT [6]: 19.3 s
Bas [6]: 0%
Eos [6]: 0.6%
Fbg [6]: 197 mg/dL
Hb [6]: 14.1 g/dL
Ht [6]: 40.8%
Lym [6]: 86.2%
MCH [6]: 21.2 pg
MCHC [6]: 34.7%
MCV [6]: 61.1 fL
Mono [6]: 2.6%
Neu [6]: 9.6%
PT [6]: 13.6 s
Plat [6]: 106.1 x10_4/uL
RBC [6]: 667.6 x10_4/ul
Ret [6]: 4.5%
WBC [6]: 106.7 x10_2/uL
APTT [7]: 19.4 s
Bas [7]: 0%
Eos [7]: 0.8%
Fbg [7]: 200.6 mg/dL
Hb [7]: 15.2 g/dL
Ht [7]: 42.7%
Lym [7]: 85.4%
MCH [7]: 20.2 pg
MCHC [7]: 35.6%
MCV [7]: 57 fL
Mono [7]: 1.8%
Neu [7]: 10.8%
PT [7]: 13.4 s
Plat [7]: 106.3 x10_4/uL
RBC [7]: 750.2 x10_4/ul
Ret [7]: 3%
WBC [7]: 132.9 x10_2/uL
APTT [8]: 18.9 s
Bas [8]: 0%
Eos [8]: 1%
Fbg [8]: 206.2 mg/dL
Hb [8]: 14.9 g/dL
Ht [8]: 41.8%
Lym [8]: 84%
MCH [8]: 19.5 pg
MCHC [8]: 35.6%
MCV [8]: 54.7 fL
Mono [8]: 1.8%
Neu [8]: 12.6%
PT [8]: 13.3 s
Plat [8]: 101.4 x10_4/uL
RBC [8]: 763.6 x10_4/ul
Ret [8]: 4.2%
WBC [8]: 116.9 x10_2/uL
KIDNEY_L [6]: 1 g
KIDNEY_R [6]: 1 g
KIDNEY_TOTAL [6]: 2.1 g
KIDNEY_L [7]: 1.1 g
KIDNEY_R [7]: 1.2 g
KIDNEY_TOTAL [7]: 2.2 g
KIDNEY_L [8]: 1.3 g
KIDNEY_R [8]: 1.3 g
KIDNEY_TOTAL [8]: 2.6 g
LIVER [6]: 10.8 g
LIVER [7]: 11.1 g
LIVER [8]: 12.9 g
A/G [6]: 1.6
ALP [6]: 756.2 IU/L
ALT [6]: 46 IU/L
AST [6]: 74 IU/L
BUN [6]: 19.8 mg/dL
CRE [6]: 0.4 mg/dL
Ca [6]: 10.7 mg/dL
Cl [6]: 104.6 meq/L
DBIL [6]: 0.068 mg/dL
GLC [6]: 202.8 mg/dL
IP [6]: 7.2 mg/dL
K [6]: 3.4 meq/L
LDH [6]: 216.4 IU/L
Na [6]: 142.4 meq/L
PL [6]: 118 mg/dL
RALB [6]: 3.5 g/dL
TBIL [6]: 0.1 mg/dL
TC [6]: 63 mg/dL
TG [6]: 36.4 mg/dL
TP [6]: 5.7 g/dL
gamma-GTP [6]: 1.4 IU/L
A/G [7]: 1.6
ALP [7]: 776.2 IU/L
ALT [7]: 47.6 IU/L
AST [7]: 75.2 IU/L
BUN [7]: 21.2 mg/dL
CRE [7]: 0.5 mg/dL
Ca [7]: 10.7 mg/dL
Cl [7]: 103 meq/L
DBIL [7]: 0.068 mg/dL
GLC [7]: 186.2 mg/dL
IP [7]: 6.7 mg/dL
K [7]: 3.5 meq/L
LDH [7]: 196.6 IU/L
Na [7]: 141.8 meq/L
PL [7]: 122.2 mg/dL
RALB [7]: 3.7 g/dL
TBIL [7]: 0.1 mg/dL
TC [7]: 67.2 mg/dL
TG [7]: 33.8 mg/dL
TP [7]: 6.1 g/dL
gamma-GTP [7]: 1.4 IU/L
A/G [8]: 1.6
ALP [8]: 655 IU/L
ALT [8]: 44.8 IU/L
AST [8]: 68.6 IU/L
BUN [8]: 19.8 mg/dL
CRE [8]: 0.5 mg/dL
Ca [8]: 10.4 mg/dL
Cl [8]: 103.6 meq/L
DBIL [8]: 0.074 mg/dL
GLC [8]: 206.8 mg/dL
IP [8]: 6.2 mg/dL
K [8]: 3.3 meq/L
LDH [8]: 137.6 IU/L
Na [8]: 143.2 meq/L
PL [8]: 108.6 mg/dL
RALB [8]: 3.8 g/dL
TBIL [8]: 0.1 mg/dL
TC [8]: 62.2 mg/dL
TG [8]: 27.6 mg/dL
TP [8]: 6.1 g/dL
gamma-GTP [8]: 1.4 IU/L
